Laboratory results published in PubChem BioAssay (NCI).
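Growth conditions: 96-well plates. Treatment: test compound, 48 hours, 5 concentrations. Analysis: linear interpolation between bracketing concentrations; unreached endpoints set to highest concentration. TGI is the concentration that stops growth completely.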

How the values were obtained:
Test in all cases: growth of human tumour cells (NCI), 48 h
[1] = system: 786-0 renal
[2] = system: A549 NSCLC
[3] = system: ACHN renal
[4] = system: HL-60(TB) leukemia
[5] = system: HT29 colon
[6] = system: K-562 leukemia
[7] = system: LOX IMVI melanoma
[8] = system: M14 melanoma
[9] = system: NCI-H460 lung
[10] = system: NCI-H522 lung
[11] = system: NCI/ADR-RES ovarian
[12] = system: OVCAR-3 ovarian
[13] = system: OVCAR-5 ovarian
[14] = system: OVCAR-8 ovarian
[15] = system: RPMI-8226 leukemia
[16] = system: SK-MEL-28 melanoma
[17] = system: SN12C renal
[18] = system: SR leukemia
[19] = system: TK-10 renal
[20] = system: UACC-257 melanoma

Row | Compound | TGI [1] [µM] | TGI [2] [µM] | TGI [3] [µM] | TGI [4] [µM] | TGI [5] [µM] | TGI [6] [µM] | TGI [7] [µM] | TGI [8] [µM] | TGI [9] [µM] | TGI [10] [µM] | TGI [11] [µM] | TGI [12] [µM] | TGI [13] [µM] | TGI [14] [µM] | TGI [15] [µM] | TGI [16] [µM] | TGI [17] [µM] | TGI [18] [µM] | TGI [19] [µM] | TGI [20] [µM]
1 | O=C1NC(N/N=C\C(O)C(O)C(O)C(O)CO)=N/C1=C/c1ccc(Cl)cc1 (stereo not given) | > 100 | > 100 | > 100 | > 100 | > 100 | > 100 | > 100 | > 100 | > 100 | > 100 | > 100 | > 100 | > 100 | > 100 | > 100 | > 100 | > 100 | > 100 | > 100 | > 100
2 | O=C(CC(C(=O)c1ccsc1)c1ccccc1)c1ccccc1 (stereo not given) | > 100 | 80 | > 100 | 23 | > 100 | > 100 | > 100 | > 100 | > 100 | > 100 | > 100 | > 100 | > 100 | > 100 | > 100 | > 100 | > 100 | > 100 | > 100 | > 100
3 | COc1cccc2nc3c(C(=O)NCCN(C)C)cccc3cc12 | 12.5 | 4.49 | 2.85 | 4.48 | 7.61 | 13.9 | 2.49 | 4.37 | 4.44 | 3.42 | 9.17 | 12.3 | 6.5 | 3.07 | 19.1 | 9.85 | 8.35 | 3.15 | 10.8 | 5.01
4 | O=c1oc2c/c(=C\c3ccc([N+](=O)[O-])cc3)c(=O)c3cccc1c3-2 | > 100 | > 100 | > 100 | > 100 | > 100 | > 100 | > 100 | > 100 | > 100 | 90.5 | > 100 | > 100 | > 100 | > 100 | > 100 | > 100 | > 100 | > 100 | 72.1 | > 100
